Drawing on patent publication US20230312587A1, “PTERIDINONE COMPOUNDS AND USES THEREOF” (Vertex Pharmaceutical Incorporated, priority 2018, published 2023), this text covers IC50 for 12 compounds.

Like-named read-outs stand apart in the source and are kept apart here. Where only a bound is given, the exact number is not on record here.

One assay concerns Hek293 empty vector. In words: In vitro cell viability (CellTiter-Glo), Hek293 empty vector. Type of assay: cell-based. The note with it: read-out: Hek293 empty vector viability. The procedure, abridged:
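HEK293 cells stably transduced with empty pCLPCX retroviral vector (puromycin-selected), seeded 1,000 cells/well, treated next day with compounds at various concentrations. Viability read by CellTiter-Glo luminescence 96 hrs after compound addition; IC50 derived.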
A general note: In ATP-based viability assays light output follows the ATP content of the culture.

Assay [1] addresses HEK293 membranes over-expressing WFS-1 (Homo sapiens (Human), UniProt O76024). In words: Radioligand displacement assay (tritiated Compound 136 probe). Type of assay: binding. Conditions: displacement of tritiated Compound 136. The procedure, abridged: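 WFS-1-overexpressing HEK293 membranes were preincubated 10 min with compound, then tritiated probe was added for 90 min at room temperature. Bound probe was collected by filtration on PEI-pretreated GF/B filters, washed and scintillation-counted. IC50 came from a 3-parameter fit of bound probe vs compound concentration.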
On the technique in general: Loss of bound radioactivity is the signal in a displacement assay; it reports binding, not function.

The next assay relates to HepG2 parental. In words: In vitro cell viability (CellTiter-Glo), HepG2 parental. The class given is cell-based. The note with it: 96 hours, read-out: HepG2 viability. The method in brief:
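Parental HepG2 cells, 5,000 per well in DMEM with 10% FBS, attached overnight, then exposed to a compound concentration range for 96 h. Viability by CellTiter-Glo luminescence; IC50 reported in bins (A <0.5 µM up to D ≥10 µM).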

HEK293 membranes over-expressing WFS-1, sequence (O76024 whole entry): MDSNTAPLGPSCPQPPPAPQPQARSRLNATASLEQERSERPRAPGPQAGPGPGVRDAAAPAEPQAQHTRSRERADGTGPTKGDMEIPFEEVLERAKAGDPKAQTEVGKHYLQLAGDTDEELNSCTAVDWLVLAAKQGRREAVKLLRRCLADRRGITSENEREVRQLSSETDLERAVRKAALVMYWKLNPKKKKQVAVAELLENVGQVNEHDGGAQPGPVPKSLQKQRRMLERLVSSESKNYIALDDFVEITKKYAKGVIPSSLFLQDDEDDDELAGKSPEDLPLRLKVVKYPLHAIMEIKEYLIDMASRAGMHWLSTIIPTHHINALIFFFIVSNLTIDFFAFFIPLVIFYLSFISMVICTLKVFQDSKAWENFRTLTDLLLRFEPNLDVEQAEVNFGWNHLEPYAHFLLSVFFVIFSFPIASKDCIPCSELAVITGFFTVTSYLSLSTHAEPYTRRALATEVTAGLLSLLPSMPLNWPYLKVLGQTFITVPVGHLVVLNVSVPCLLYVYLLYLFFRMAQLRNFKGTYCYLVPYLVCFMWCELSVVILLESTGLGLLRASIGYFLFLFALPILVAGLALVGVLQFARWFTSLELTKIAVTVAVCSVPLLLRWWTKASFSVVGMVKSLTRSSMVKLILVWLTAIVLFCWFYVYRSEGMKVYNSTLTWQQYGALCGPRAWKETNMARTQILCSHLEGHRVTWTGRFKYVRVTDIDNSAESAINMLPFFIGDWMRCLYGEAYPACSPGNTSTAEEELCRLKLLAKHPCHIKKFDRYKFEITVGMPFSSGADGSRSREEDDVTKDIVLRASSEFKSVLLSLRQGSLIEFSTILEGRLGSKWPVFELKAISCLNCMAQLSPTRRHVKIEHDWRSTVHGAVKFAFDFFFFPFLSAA

For `Cc1nc(NCc2cnn(Cc3cncc(F)c3)c2)nc2c1NC(=O)[C@H](C(C)C)N2C` [Compound 415, (7S)-2-(((1-((5-fluoropyridin-3-yl)methyl)-1H-pyrazol-4-yl)methyl)amino)-7-isopropyl-4,8-dimethyl-7,8-dihydropteridin-6(5H)-one], the IC50 is at least 3000 nM with Hek293 empty vector (Homo sapiens, HEK293); under 60 nM in assay [1]; 500 to 2000 nM with HepG2 parental (Homo sapiens).
For `Cc1nc(NCc2cnn(Cc3ccc(C(F)(F)F)nc3C(C)(C)O)c2)nc2c1NC(=O)[C@H](C)N2C` [Compound 416, (7S)-2-(((1-((2-(2-hydroxypropan-2-yl)-6-(trifluoromethyl)pyridin-3-yl)methyl)-1H-pyrazol-4-yl)methyl)amino)-4,7,8-trimethyl-7,8-dihydropteridin-6(5H)-one] the same measures were at least 3000 nM, under 60 nM and under 500 nM.
For `Cc1nc(NCc2cnn(Cc3ccc(C(F)(F)F)nc3Cl)c2)nc2c1NC(=O)[C@H](C)N2C` [Compound 418, (7S)-2-(((1-((2-chloro-6-(trifluoromethyl)pyridin-3-yl)methyl)-1H-pyrazol-4-yl)methyl)amino)-4,7,8-trimethyl-7,8-dihydropteridin-6(5H)-one] the same measures were at least 3000 nM, under 60 nM and under 500 nM.
Consider `Cc1nc(NCc2cnn(Cc3ccc(C(F)(F)F)nc3C(C)O)c2)nc2c1NC(=O)[C@H](C)N2C` (stereo partly drawn) [Compound 419, (7S)-2-(((1-((2-((S)-1-hydroxyethyl)-6-(trifluoromethyl)pyridin-3-yl)methyl)-1H-pyrazol-4-yl)methyl)amino)-4,7,8-trimethyl-7,8-dihydropteridin-6(5H)-one], for which the IC50 in the assay with Hek293 empty vector (Homo sapiens, HEK293) is at least 3000 nM; in assay [1], 60 to 600 nM; with HepG2 parental (Homo sapiens), 2000 to 10000 nM.
Take `Cc1nc(NCc2cnn(Cc3ccc(F)nc3)c2)nc2c1NC(=O)[C@H](C1CC1)N2C` [Compound 421, (7S)-7-cyclopropyl-2-(((1-((6-fluoropyridin-3-yl)methyl)-1H-pyrazol-4-yl)methyl)amino)-4,8-dimethyl-7,8-dihydropteridin-6(511)-one]: the IC50 in the assay on Hek293 empty vector (Hek293 empty vector) is at least 3000 nM; in assay [1], 60 to 600 nM; in the assay with HepG2 parental, 500 to 2000 nM.
On to `Cc1cc(F)ncc1Cn1cc(CNc2nc(C)c3c(n2)N(C)[C@@H](C(C)C)C(=O)N3)cn1` [Compound 423, (7S)-2-(((1-((6-fluoro-4-methylpyridin-3-yl)methyl)-1H-pyrazol-4-yl)methyl)amino)-7-isopropyl-4,8-dimethyl-7,8-dihydropteridin-6(5H)-one], for which the IC50 was at least 3000 nM with Hek293 empty vector (Homo sapiens, HEK293); 60 to 600 nM in assay [1]; under 500 nM in the assay with HepG2 parental (Homo sapiens).
As for `Cc1nc(NCc2cnn(Cc3cnc(Cl)c(F)c3)c2)nc2c1NC(=O)[C@H](C(C)C)N2C` [Compound 424, (7S)-2-(((1-((6-chloro-5-fluoropyridin-3-yl)methyl)-1H-pyrazol-4-yl)methyl)amino)-7-isopropyl-4,8-dimethyl-7,8-dihydropteridin-6(5H)-one], the IC50 in the assay on Hek293 empty vector (Homo sapiens, HEK293) is at least 3000 nM; in assay [1] it was under 60 nM; with HepG2 parental (Homo sapiens), under 500 nM.
The like results for `Cc1ncc(Cn2cc(CNc3nc(C)c4c(n3)N(C)[C@@H](C(C)C)C(=O)N4)cn2)cc1F` [Compound 425, (7S)-2-(((1-((5-fluoro-6-methylpyridin-3-yl)methyl)-1H-pyrazol-4-yl)methyl)amino)-7-isopropyl-4,8-dimethyl-7,8-dihydropteridin-6(5H)-one] were, in that order, at least 3000 nM, 60 to 600 nM and 500 to 2000 nM.
For `CC[C@H]1C(=O)Nc2cnc(NCc3cnn(Cc4ccc(C(F)(F)F)nc4)c3)nc2N1C` [Compound 427, (7S)-7-ethyl-8-methyl-2-(((1-((6-(trifluoromethyl)pyridin-3-yl)methyl)-1H-pyrazol-4-yl)methyl)amino)-7,8-dihydropteridin-6(5H)-one] the same measures were at least 3000 nM, under 60 nM and at least 10000 nM.
For `Cc1nc(NCc2cn(Cc3ccc(C(F)(F)F)nc3)cn2)nc2c1NC(=O)[C@H](C)N2C` [Compound 428, (S)-4,7,8-trimethyl-2-(((1-((6-(trifluoromethyl)pyridin-3-yl)methyl)-1H-imidazol-4-yl)methyl)amino)-7,8-dihydropteridin-6(5H)-one] the same measures were at least 3000 nM, at least 3000 nM and at least 10000 nM.
Consider “(7S)-2-(((1-((6-fluoro-2-isopropylpyridin-3-yl)methyl)-1H-pyrazol-4-yl)methyl)(methyl)amino)-7-isopropyl-4,8-dimethyl-7,8-dihydropteridin-6(5H)-one [Compound 430]”, for which the IC50 in the assay with Hek293 empty vector (Hek293 empty vector) is at least 3000 nM; in assay [1], under 60 nM; in the assay with HepG2 parental, under 500 nM.
Take “(7S)-4,7,8-trimethyl-2-((trans-3-(3,4-difluorophenoxy)cyclobutyl)amino)-7,8-dihydropteridin-6(5H)-one [Compound 251]”: the IC50 in the assay on Hek293 empty vector (Hek293 empty vector) was at least 3000 nM; in assay [1], 60 to 600 nM; with HepG2 parental it was at least 10000 nM.
